Measurements as given in ChEMBL document CHEMBL1201862, “PubChem BioAssay data set” (2004).
“And” between values parts separate entries of the source, which are not always exact repeats. Equal values may be shown once. The source made the active and inactive calls.

Assays:
[1] = target: Neurotensin receptor type 1 (Homo sapiens, UniProt P30989); assay type: functional;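 note: Image-based confirmatory dose-response assay measuring agonist activity at NTR1; NTR1-expressing U2OS osteosarcoma cells imaged for beta-arrestin GFP spot formation; agonist potency where compounds increase beta-arrestin recruitment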
Coagulation factor XII = target: T1, Coagulation factor XII (Homo sapiens, UniProt P00748); assay type: functional;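 note: activated factor XIIa alpha cleaving a fluorogenic AMC peptide substrate; inhibitor potency from loss of enzyme activity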
T1 sequence (P00748 whole entry): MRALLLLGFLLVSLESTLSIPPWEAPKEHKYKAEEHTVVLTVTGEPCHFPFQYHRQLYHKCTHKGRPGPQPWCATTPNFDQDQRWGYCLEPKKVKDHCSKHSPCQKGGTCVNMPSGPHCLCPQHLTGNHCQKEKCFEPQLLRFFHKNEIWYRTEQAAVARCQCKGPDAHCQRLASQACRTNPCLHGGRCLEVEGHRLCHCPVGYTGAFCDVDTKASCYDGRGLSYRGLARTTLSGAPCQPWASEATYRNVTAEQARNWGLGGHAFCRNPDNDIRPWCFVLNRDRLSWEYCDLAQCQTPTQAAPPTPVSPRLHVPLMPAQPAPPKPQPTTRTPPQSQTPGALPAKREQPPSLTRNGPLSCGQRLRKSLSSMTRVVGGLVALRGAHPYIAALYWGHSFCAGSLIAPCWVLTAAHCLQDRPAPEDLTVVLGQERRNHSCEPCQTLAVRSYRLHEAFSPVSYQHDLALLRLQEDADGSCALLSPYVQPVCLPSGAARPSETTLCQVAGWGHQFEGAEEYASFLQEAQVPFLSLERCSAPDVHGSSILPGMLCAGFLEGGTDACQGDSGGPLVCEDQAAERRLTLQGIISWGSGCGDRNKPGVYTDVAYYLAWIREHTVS

[2] = growth suppression of beta-catenin-knockout colon cells, dose response, cell-based, HCT116, human colon tumor (AID 1045); assay type: functional;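 note: HCT116 colon tumor cells with beta catenin knocked out; cells exposed to compound for 60 hours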
[3] = growth suppression of PTEN-null colon cells, dose response, cell-based, HCT116 PTEN knockout (AID 1047); assay type: functional;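 note: HCT116 colon tumor cells with PTEN knocked out; cells exposed to compound for 60 hours before readout; potency for loss of cell viability measured by luminescence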
Estrogen receptor = target: T2, Estrogen receptor (Homo sapiens, UniProt P03372);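 note: potency for inhibiting coactivator peptide recruitment to the receptor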
T2 sequence (P03372 whole entry): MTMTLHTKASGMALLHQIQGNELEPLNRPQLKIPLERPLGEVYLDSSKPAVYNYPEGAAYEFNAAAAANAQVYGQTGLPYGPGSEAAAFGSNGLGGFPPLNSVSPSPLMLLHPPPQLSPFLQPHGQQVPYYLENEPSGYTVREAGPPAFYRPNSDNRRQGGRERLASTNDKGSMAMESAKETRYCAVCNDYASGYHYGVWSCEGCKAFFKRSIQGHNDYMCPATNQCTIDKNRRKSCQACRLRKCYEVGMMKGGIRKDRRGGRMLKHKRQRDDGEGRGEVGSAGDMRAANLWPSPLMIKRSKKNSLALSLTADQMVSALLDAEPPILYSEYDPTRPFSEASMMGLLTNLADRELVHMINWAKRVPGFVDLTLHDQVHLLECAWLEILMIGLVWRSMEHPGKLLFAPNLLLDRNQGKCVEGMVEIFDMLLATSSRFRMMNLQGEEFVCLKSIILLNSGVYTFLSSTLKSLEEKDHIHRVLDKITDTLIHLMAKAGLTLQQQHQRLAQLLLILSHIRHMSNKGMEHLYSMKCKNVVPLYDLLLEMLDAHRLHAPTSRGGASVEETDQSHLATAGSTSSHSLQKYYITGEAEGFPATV

Keap1/Nrf2 = Keap1/Nrf2 (Homo sapiens, UniProt Q14145); assay: Keap1-Nrf2 protein-protein interaction inhibitors, dose response, biochemical, fluorescence polarization, cherry-picked samples (AID 588683)
[4] = target: Voltage-dependent T-type calcium channel subunit alpha-1H (Homo sapiens, UniProt O95180); assay type: functional;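 note: channel activity triggered by adding a high calcium stimulation buffer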
[5] = target: Polyadenylate-binding protein 1 (Homo sapiens, UniProt P11940); assay: PABP poly(A) RNA binding inhibitors, primary screen, biochemical, fluorescence polarization, uHTS (AID 2014)
[6] = target: Eukaryotic translation initiation factor 4H (Homo sapiens, UniProt Q15056); assay: human eIF4H binding inhibitors, primary screen, translation initiation inhibitor project, biochemical, uHTS, fluorescence polarization (AID 2012)
Aminopeptidase N = target: T3, Aminopeptidase N (Plasmodium falciparum FcB1/Columbia, UniProt O96935); assay: P. falciparum M1AAP inhibitors, biochemical, fluorogenic H-Leu-NHMec substrate, 1536-well (AID 1445); design: species or system Plasmodium falciparum 3D7, 3D7
T3 sequence (O96935 whole entry): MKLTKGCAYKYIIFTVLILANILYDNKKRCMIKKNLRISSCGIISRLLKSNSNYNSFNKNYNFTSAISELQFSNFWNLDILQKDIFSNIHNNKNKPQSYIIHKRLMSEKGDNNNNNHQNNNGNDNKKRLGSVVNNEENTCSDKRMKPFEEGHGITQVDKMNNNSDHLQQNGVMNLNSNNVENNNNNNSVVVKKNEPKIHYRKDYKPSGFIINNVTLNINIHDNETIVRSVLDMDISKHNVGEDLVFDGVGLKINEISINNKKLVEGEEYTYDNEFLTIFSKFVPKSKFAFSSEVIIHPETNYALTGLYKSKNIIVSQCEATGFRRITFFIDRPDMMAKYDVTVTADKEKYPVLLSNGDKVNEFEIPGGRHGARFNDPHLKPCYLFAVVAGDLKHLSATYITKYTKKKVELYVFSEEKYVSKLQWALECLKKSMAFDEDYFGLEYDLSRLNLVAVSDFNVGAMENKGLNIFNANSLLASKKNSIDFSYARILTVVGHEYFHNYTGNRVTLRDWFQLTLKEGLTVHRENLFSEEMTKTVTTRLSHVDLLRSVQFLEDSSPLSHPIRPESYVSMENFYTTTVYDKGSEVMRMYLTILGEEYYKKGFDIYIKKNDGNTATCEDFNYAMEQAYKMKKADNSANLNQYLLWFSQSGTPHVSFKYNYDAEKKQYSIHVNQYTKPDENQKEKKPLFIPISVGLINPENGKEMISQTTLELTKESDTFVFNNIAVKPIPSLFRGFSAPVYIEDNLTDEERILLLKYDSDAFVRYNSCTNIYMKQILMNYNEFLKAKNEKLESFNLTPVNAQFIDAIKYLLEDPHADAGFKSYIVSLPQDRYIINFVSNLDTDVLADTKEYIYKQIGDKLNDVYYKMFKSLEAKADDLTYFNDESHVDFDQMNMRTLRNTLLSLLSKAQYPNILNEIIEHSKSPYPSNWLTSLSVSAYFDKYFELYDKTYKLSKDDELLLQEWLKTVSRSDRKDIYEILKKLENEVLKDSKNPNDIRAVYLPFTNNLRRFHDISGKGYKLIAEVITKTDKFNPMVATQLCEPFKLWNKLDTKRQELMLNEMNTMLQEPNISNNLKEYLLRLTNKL

[7] = inhibitors of firefly luciferase expression or activity, dose response, H4 neuroglioma cells, luminescence (AID 1990); assay type: functional, cell-based
[8] = inhibitors of SNCA 5'UTR-driven reporter translation, confirmation, H4 neuroglioma cells, luminescence (AID 1988); assay type: functional, cell-based
[9] = cytotoxicity in HEK-293T cells, dose response, cytotoxicity control for BCR NF-kB inhibitor project, luminescence, B-cell screen hits (AID 489021); assay type: functional, cell-based;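 note: HEK-293T cells carrying an NF-kB luciferase reporter; cells exposed to compound for about 14 hours before viability readout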
[10] = Luminescence Cell-Based Dose Response HTS to Identify Inhibitors of 5'UTR Stem-Loop Driven Prion Protein mRNA Translation in H4 Neuroglioblastoma Cells. [Related pubchem assays: 1827 (Project Summary), 1813 (Primary HTS)]; assay type: functional
[11] = target: G-protein coupled receptor 35 (Homo sapiens, UniProt Q9HC97); assay: GPR35 antagonists blocking zaprinast-driven arrestin recruitment, primary screen, imaging, U2OS, beta-arrestin-GFP, zaprinast agonist (AID 2058); assay type: functional;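 note: antagonist potency meaning inhibition of agonist-induced arrestin redistribution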
[12] = Luminescence Cell-Based Dose Retest to Confirm Inhibitors of Cancer Stem Cells. [Related pubchem assays (depositor defined):AID2717, AID2721]; assay type: functional; conditions: Homo sapiens
HeLa = assay: HeLa cell cytotoxicity, dose response, cytotoxicity control, 24 h, cherry-picked samples (AID 504726); assay type: functional, cell-based; conditions: Homo sapiens;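 note: potency for cytotoxicity as loss of luminescence signal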
Phosphomannomutase 2 = target: T4, Phosphomannomutase 2 (Homo sapiens, UniProt O15305); assay: Counter screen SAR assay for PMM2 inhibitors via a fluorescence intensity assay. [Related pubchem assays (depositor defined):AID1545, AID1574]
T4 sequence (O15305 whole entry): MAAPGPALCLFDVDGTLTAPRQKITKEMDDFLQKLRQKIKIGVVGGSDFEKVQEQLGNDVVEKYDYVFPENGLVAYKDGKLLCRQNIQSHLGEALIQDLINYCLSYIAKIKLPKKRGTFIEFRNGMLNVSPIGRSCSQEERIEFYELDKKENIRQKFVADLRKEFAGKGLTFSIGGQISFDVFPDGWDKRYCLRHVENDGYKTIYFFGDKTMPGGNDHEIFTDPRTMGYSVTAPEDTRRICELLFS

[13] = target: T5, Mannose-6-phosphate isomerase (Homo sapiens, UniProt P34949); assay: PMI enzyme inhibitors, confirmation, biochemical, fluorescence intensity (AID 1535)
T5 sequence (P34949 whole entry): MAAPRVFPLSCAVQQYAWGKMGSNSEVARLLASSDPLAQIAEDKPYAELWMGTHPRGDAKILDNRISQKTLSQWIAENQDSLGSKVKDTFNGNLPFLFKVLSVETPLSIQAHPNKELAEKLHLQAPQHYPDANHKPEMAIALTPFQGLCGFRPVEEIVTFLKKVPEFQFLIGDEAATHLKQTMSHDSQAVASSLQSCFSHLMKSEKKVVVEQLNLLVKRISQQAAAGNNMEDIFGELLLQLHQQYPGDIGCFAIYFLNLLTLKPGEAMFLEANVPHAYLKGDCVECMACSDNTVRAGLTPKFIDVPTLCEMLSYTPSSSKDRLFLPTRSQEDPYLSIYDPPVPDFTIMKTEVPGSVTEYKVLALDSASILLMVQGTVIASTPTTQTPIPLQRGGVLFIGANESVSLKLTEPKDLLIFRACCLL

Chain of Voltage-dependent T-type calcium channel subunit alpha-1H (O95180 whole entry): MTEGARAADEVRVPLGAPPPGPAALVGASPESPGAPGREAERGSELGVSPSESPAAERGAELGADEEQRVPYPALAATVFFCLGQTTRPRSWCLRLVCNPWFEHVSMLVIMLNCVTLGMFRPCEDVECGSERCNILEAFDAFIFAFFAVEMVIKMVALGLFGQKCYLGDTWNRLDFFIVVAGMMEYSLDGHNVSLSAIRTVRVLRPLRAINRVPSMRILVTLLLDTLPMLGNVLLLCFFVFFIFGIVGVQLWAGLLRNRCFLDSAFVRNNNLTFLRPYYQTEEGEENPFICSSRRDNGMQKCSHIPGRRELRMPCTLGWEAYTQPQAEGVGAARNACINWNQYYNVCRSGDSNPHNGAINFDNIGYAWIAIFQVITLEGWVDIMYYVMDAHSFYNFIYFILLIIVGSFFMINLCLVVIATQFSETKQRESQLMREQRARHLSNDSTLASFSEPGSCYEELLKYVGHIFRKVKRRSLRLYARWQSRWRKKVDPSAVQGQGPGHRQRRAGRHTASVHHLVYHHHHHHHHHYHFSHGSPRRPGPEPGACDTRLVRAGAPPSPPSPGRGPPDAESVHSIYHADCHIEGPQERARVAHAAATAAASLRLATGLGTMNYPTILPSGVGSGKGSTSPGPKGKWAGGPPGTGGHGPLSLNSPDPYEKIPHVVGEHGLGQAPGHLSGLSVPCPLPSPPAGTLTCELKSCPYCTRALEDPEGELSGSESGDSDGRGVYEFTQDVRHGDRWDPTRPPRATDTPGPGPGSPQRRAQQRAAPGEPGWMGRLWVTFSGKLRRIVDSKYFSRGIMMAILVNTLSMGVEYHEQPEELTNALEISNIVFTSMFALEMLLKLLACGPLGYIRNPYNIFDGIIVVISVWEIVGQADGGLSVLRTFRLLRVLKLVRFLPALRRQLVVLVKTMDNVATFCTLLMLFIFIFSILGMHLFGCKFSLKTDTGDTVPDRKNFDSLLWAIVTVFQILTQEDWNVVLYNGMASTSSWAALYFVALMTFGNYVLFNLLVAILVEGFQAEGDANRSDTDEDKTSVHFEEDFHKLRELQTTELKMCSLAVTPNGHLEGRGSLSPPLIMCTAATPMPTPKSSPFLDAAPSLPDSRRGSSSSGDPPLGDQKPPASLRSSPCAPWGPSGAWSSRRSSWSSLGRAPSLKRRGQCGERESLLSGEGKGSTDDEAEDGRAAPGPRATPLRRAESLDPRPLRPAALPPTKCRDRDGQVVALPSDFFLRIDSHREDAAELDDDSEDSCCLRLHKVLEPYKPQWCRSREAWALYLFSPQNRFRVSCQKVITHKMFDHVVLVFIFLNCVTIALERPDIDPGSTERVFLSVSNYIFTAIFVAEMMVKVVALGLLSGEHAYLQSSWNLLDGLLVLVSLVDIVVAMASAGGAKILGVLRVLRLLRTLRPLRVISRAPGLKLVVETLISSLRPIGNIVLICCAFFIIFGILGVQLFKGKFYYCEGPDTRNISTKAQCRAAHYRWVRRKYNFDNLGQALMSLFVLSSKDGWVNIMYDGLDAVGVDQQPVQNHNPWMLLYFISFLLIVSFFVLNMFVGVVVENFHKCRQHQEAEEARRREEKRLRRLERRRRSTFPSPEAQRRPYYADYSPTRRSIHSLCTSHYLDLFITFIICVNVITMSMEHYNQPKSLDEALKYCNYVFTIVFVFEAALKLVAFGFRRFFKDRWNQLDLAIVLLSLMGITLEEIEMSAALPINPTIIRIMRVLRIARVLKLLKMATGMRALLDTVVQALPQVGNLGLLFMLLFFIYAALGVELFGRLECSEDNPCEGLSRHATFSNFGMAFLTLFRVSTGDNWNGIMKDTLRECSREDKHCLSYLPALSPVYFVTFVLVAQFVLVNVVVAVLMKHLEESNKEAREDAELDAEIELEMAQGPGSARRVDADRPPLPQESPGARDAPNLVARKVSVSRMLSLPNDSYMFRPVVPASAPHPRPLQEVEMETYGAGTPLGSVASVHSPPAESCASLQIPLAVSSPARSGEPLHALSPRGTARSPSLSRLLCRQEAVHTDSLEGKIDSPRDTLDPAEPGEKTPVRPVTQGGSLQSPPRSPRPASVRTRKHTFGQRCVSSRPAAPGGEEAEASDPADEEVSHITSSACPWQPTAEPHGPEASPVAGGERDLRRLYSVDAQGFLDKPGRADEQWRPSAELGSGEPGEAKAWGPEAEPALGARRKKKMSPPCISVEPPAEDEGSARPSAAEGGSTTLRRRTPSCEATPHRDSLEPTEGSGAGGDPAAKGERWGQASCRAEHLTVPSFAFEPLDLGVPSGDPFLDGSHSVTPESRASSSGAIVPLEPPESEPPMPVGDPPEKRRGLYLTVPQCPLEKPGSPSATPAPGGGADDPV
Chain of Neurotensin receptor type 1 (P30989 whole entry): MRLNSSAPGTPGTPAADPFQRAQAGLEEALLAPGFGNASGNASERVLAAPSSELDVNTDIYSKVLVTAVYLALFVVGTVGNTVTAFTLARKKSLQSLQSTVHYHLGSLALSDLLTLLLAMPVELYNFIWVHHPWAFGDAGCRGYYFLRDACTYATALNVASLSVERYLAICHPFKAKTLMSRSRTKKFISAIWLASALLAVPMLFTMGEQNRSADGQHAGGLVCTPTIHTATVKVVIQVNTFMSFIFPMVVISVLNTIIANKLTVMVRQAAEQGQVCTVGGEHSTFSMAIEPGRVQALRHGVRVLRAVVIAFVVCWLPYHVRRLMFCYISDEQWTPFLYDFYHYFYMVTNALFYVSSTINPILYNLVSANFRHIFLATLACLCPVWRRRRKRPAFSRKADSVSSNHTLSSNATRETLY
Chain of G-protein coupled receptor 35 (Q9HC97 whole entry): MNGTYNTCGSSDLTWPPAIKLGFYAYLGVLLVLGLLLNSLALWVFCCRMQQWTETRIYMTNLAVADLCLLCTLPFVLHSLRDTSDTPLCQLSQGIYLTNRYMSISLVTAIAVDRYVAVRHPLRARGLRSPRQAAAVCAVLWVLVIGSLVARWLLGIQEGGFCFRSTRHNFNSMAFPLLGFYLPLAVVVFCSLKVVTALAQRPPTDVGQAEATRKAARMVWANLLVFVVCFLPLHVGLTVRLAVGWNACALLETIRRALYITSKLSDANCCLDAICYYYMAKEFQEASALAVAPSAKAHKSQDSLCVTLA
Chain of Keap1/Nrf2 (Q16236 whole entry): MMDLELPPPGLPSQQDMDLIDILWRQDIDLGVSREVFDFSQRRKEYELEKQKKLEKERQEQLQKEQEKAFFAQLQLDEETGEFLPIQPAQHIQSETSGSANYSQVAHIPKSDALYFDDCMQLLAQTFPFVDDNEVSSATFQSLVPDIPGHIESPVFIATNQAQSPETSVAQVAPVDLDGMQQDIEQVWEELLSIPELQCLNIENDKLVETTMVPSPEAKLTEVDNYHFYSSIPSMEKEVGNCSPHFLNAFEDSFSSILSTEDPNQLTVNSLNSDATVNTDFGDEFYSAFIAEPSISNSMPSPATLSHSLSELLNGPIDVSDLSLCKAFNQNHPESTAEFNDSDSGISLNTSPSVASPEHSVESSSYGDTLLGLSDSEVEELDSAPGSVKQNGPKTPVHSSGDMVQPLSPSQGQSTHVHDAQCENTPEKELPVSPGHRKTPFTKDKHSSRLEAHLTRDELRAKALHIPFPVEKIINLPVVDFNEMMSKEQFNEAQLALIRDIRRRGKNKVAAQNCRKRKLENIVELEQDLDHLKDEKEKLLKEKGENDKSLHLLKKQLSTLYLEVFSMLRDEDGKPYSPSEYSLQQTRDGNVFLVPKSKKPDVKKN
Chain of Keap1/Nrf2 (Q14145 whole entry): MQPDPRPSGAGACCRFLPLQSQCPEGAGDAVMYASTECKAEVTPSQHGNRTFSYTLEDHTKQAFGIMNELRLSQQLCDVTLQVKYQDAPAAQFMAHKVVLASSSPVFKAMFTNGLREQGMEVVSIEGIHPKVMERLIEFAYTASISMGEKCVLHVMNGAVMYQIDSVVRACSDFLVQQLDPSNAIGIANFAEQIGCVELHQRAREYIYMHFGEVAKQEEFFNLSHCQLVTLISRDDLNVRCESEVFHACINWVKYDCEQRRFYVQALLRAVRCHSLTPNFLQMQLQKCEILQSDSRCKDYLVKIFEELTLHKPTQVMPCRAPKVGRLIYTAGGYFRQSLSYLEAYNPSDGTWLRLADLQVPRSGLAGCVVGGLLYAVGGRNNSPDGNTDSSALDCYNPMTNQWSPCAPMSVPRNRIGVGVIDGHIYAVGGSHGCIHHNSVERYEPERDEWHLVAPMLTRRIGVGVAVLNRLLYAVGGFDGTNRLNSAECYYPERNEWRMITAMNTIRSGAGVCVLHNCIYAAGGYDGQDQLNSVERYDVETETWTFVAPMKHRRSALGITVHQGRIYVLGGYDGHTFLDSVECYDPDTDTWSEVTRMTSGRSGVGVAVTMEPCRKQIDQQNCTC

For `COc1cc2c3nnc(-c4ccc(F)cc4)c-3cn(Cc3cccc(F)c3)c2cc1OC`, the EC50 [1] was 3.59 µM (active).
For `Cc1ccc(N/C=C2/C(=O)N(c3ccc4c(c3)OCO4)C(=O)c3ccccc32)cc1`, the IC50 (Coagulation factor XII) was > 50 µM (inactive), the EC50 [2] was 9.32 µM (active) and the EC50 [3] was 8.15 µM (active). The IC50 (Estrogen receptor) was 19.8 µM (active).
With `c1ccc2c(c1)CCCN2Cc1nnnn1CC1CCCO1` (stereo not given) the AC50 (Keap1/Nrf2) was > 52 µM (inactive).
For `CCOC(=O)c1cnn(-c2ccccc2)c1-n1cccc1C(=O)C(=O)Nc1ccc(F)cc1`, the EC50 [4] was 6.1 µM (active).
With `CCOC(=O)CSc1snnc1-c1ccccc1` the IC50 (Coagulation factor XII) was > 50 µM (inactive).
With `c1ccc(-c2noc(CSc3nnnn3-c3ccccc3)n2)cc1` the EC50 [4] was 8.32 µM (active).
With `CCN(CC)Cc1c(O)ccc2c(C)c(CC(=O)OC)c(=O)oc12` the IC50 [5] was > 100 µM (inactive), the IC50 [6] was > 100 µM (inactive) and the IC50 (Aminopeptidase N) was 40.4 µM (active).
In the case of `Cc1nc2cc(-c3cccc(F)c3)nn2c(C)c1CCC(=O)N1CCC2(CC1)OCCO2`, the EC50 [7] is reported as 10.1 µM (active), the EC50 [8] is reported as 15.4 µM (active) and the IC50 [9] is reported as > 80 µM (inactive). For the same compound, the EC50 [10] was 16.6 µM (active).
In the case of `CCOC(=O)C1CCN(c2ncnc3c2cnn3-c2ccc(Cl)cc2)CC1`, the IC50 [9] is reported as > 80 µM (inactive).
With `CC(C)CSC1=NSC2=NC(=O)/C(=C\c3coc4ccccc4c3=O)C(=N)N12` the IC50 [11] was 23.3 µM (inactive).
With `CCN1C(=O)c2cccc3c(S(=O)(=O)N4CCC(C)CC4)ccc1c23` the IC50 [9] was > 80 µM (inactive).
With `Cc1cc(C)c2c(c1)/C(=C/C(=O)c1ccc(Br)s1)C(=O)N2` the EC50 [1] was 6.24 µM (active) and the AC50 [12] was 2.22 µM (active).
With `Cc1ccc(NC(=O)c2ccc(Cl)c(S(=O)(=O)N3CCc4ccccc43)c2)nc1` the AC50 (HeLa) was 342 µM (active).
With `Clc1nss/c1=N\c1cccnc1` the IC50 (Phosphomannomutase 2) was > 65.8 µM (active) and the IC50 [13] was 16.7 µM (active) and 13.2 µM (active).
With `O=C1NC(=O)N(Cc2ccc(F)cc2)C(=O)/C1=C/Nc1ccc(C(=O)O)cc1` the IC50 (Coagulation factor XII) was > 50 µM (inactive).
